Results from US20240263147A1, “CARDIAC ORGANOID AND ANTI-ELECTRO-MITOCHONDRIAL DESYNCHRONIZATION THERAPY” (YISSUM RESEARCH DEVELOPMENT COMPANY OF THE HEBREW …, priority 2021, published 2024).
Entries after “also recorded” stand apart in the source; their conditions may differ.

How the values were obtained:
[1] = known cardiac side effects of therapeutic agents; cited from earlier work
[2] = tested on: vascularized cardiac organoids; assay: Integrated metabolic-electro-mechanical sensor chip: simultaneous contraction, field potential and interstitial oxygen; assay type: cell-based, human; conditions: 10 μM Blebbistatin
[3] = tested on: vascularized cardiac organoids; assay: as above; assay type: cell-based, human
Experimental: The MEA design and printed connections enabled access to 45 different electrodes inside the platform intermittently via a compatible sensor circuit (FIGS. 9A-9B). Spontaneous cardiac field potentials (FPs) were recorded from cardiac organoids using an integrated signal conditioning circuit (AD8232®), with a 2-pole adjustable high-pass filter, 3-pole adjustable low-pass filter, adjustable gain, and medical instrumentation amplifiers to extract, amplify, and filter the extracellular field potential of the organoids remotely within the confined well. […] Spontaneous cardiac field potentials were measured at 100 Hz sampling rate in each microwell. Field potential rhythm frequency was calculated in real-time using a custom-made MATLAB® software imposing Fourier Transformation (FFT) on the evolving kinetic data (FIGS. 9C-9D).
Real-time oxygen measurement was performed based on previously described elements. Briefly, phosphorescent ruthenium microprobes (CPOx-50-RuP) show a decrease in phosphorescence decay time as a function of oxygen concentration, allowing to measure the oxygen content. Controlled sinusoidal modulated 532-nm LED signal excites the embedded oxygen sensors and emits a sinusoidal amplitude-modulated light at 605 nm that is shifted in phase due to oxygen quenching. A phase shift is measured between the emission hardware-filtered first detector (PMT), and a second excitation detector (cPMT). […] Measurements were carried out at a 10 Hz sampling rate. Contraction rate and oxygen rhythm frequency were calculated in real-time using a custom-made MATLAB® software imposing Fourier Transformation (FFT) on the evolving kinetic data. Using custom MATLAB code, we calculated the cardiac organoid contraction rates directly from our oxygen reader based on the emission intensity measured in peak-to-peak voltage from the oxygen bead and its displacement using the second PMT system. Cardiac displacement was measured by the embedded oxygen beads inside the cardiac organoids during a contraction. When the beads move at different distances from the focal point, changes in peak-to-peak voltage occurred leading to the detection of the contraction behavior.
For simultaneous real-time oxygen, contraction rate, and field potential measurements, cardiac organoids were cultured in RPMI supplemented with B27 minus insulin, 5 ng/ml VEGF and 0.1% DMSO (control) or 10 μM KB-R7943 mesylate. Real-time oxygen, contraction rate, and field potential were measured after 0, 15, and 25 minutes of exposure to DMSO (control) or 10 μM KB-R7943 mesylate.

Molecule	Side effect (cardiac) [1]	also measured
O=c1[nH]cc(F)c(=O)[nH]1 [5-fluorouracil]	arrhythmias, myocardial ischemia, heart failure	
Cn1c(=O)cc(N2CCC[C@@H](N)C2)n(Cc2ccccc2C#N)c1=O [Alogliptin]	heart failure	
COc1ccc(CCN2CCC(Nc3nc4ccccc4n3Cc3ccc(F)cc3)CC2)cc1 [Astemizole]	long QT syndrome, TdP	
Cc1cn([C@H]2C[C@H](N=[N+]=[N-])[C@@H](CO)O2)c(=O)[nH]c1=O [Azidothymidine]	dilated cardiomyopathy	
Cc1ccc2c(c1)C(=O)C1(O)CCN(c3ccccc3)C1=N2 (stereo not drawn) [Blebbistatin]		effect on contraction [2]: inhibits the contraction; also recorded: blocked cardiac contraction; effect on field potential and interstitial oxygen oscillation frequency and intensity [2]: does not affect the FPs or interstitial oxygen oscillations frequency and intensity; also recorded: did not affect the field potential or the oxygen oscillation frequency and intensity
CC(C)C[C@H](NC(=O)[C@H](Cc1ccccc1)NC(=O)c1cnccn1)B(O)O [Bortezomib]	heart failure, arrhythmia	
COc1cc(OC)c(C(=O)CCCN2CCCC2)c(OC)c1 [Buflomedil]	QT prolongation, cardiac arrest	
CCCCN1CCCCC1C(=O)Nc1c(C)cccc1C (stereo not drawn) [Bupivacaine]	ventricular arrhythmias, myocardial depression	
CC(C)(N)Cc1ccc(Cl)cc1 [Chlorphentermine]	pulmonary heart disease	
COc1cc(N)c(Cl)cc1C(=O)NC1CCN(CCCOc2ccc(F)cc2)CC1OC (stereo not drawn) [Cispapride]	ventricular arrhythmia, QT prolongation, TdP, cardiac arrest	
N.N.[Cl][Pt][Cl] [Cisplatin]	arrhythmias, myocardial ischemia, heart failure	
CC[C@H]1OC(=O)[C@H](C)[C@@H](O[C@H]2C[C@@](C)(OC)[C@@H](O)[C@H](C)O2)[C@H](C)[C@@H](O[C@@H]2O[C@H](C)C[C@H](N(C)C)[C@H]2O)[C@](C)(OC)C[C@@H](C)C(=O)[C@H](C)[C@@H](O)[C@]1(C)O [Clarithromycin]	QT prolongation, myocardial infarction, arrhythmias, cardiac death	
CC(CN(C)C)C(C)(O)Cc1ccc(Cl)cc1 (stereo not drawn) [Clobutinol]	QT prolongation	
COC(=O)[C@H]1[C@@H](OC(=O)c2ccccc2)C[C@@H]2CC[C@H]1N2C [Cocaine]	left ventricular hypertrophy, arrhythmias	
Cc1nc(Nc2ncc(C(=O)Nc3c(C)cccc3Cl)s2)cc(N2CCN(CCO)CC2)n1 [Dasatinib]	heart failure	
COc1cccc2c1C(=O)c1c(O)c3c(c(O)c1C2=O)C[C@@](O)(C(C)=O)C[C@@H]3O[C@H]1C[C@H](N)[C@H](O)[C@H](C)O1 [Daunorubicin]	arrhythmias, heart failure	
CCN[C@@H](C)Cc1cccc(C(F)(F)F)c1 [Dexfenfluramine]	valvular heart disease	
CC(=O)O[C@@]12CO[C@@H]1C[C@H](O)[C@@]1(C)C(=O)[C@H](O)C3=C(C)[C@@H](OC(=O)[C@H](O)[C@@H](NC(=O)OC(C)(C)C)c4ccccc4)C[C@@](O)([C@@H](OC(=O)c4ccccc4)[C@H]21)C3(C)C [Docetaxel]	bradycardia, myocardial ischemia, heart failure	
COc1cccc2c1C(=O)c1c(O)c3c(c(O)c1C2=O)C[C@@](O)(C(=O)CO)C[C@@H]3O[C@H]1C[C@H](N)[C@H](O)[C@H](C)O1 [Doxorubicin]	arrhythmias, heart failure	
COc1ccc(C(=O)Nc2ccccc2CCC2CCCCN2C)cc1 (stereo not drawn) [Encainide]	QT prolongation, TdP	
CN1C[C@H](C(=O)N[C@]2(C)O[C@@]3(O)[C@@H]4CCCN4C(=O)[C@H](Cc4ccccc4)N3C2=O)C=C2c3cccc4[nH]cc(c34)C[C@H]21 [Ergotamine]	valvular heart disease	
Cc1ccc(-c2ncc(Cl)cc2-c2ccc(S(C)(=O)=O)cc2)cn1 [Etoricoxib]	thrombotic events	
CCNC(C)Cc1cccc(C(F)(F)F)c1 (stereo not drawn) [Fenfluramine]	valvular heart disease	
CC(=O)[C@]1(O)Cc2c(O)c3c(c(O)c2[C@@H](O[C@H]2C[C@H](N)[C@H](O)[C@H](C)O2)C1)C(=O)c1ccccc1C3=O [Idarubicin]	arrhythmias, heart failure	
CS(=O)(=O)CCNCc1ccc(-c2ccc3ncnc(Nc4ccc(OCc5cccc(F)c5)c(Cl)c4)c3c2)o1 [Lapatinib]	left ventricular ejection fraction, congestive heart failure	

Molecule	Side effect (cardiac) [1]	also measured
CCN(CC)CC(=O)Nc1c(C)cccc1C [Lidocaine]	bradycardia, cardiac arrest	
CC[C@@H](CO)NC(=O)[C@@H]1C=C2c3cccc4c3c(cn4C)C[C@H]2N(C)C1 [Methysergide]	valvular heart disease	
COCC(=O)O[C@]1(CCN(C)CCCc2nc3ccccc3[nH]2)CCc2cc(F)ccc2[C@@H]1C(C)C [Mibefradil]	QT prolongation	
COc1ccc2cc([C@H](C)C(=O)O)ccc2c1 [Naproxen]	myocardial infarction	
COc1ccc2[nH]c([S+]([O-])Cc3ncc(C)c(OC)c3C)nc2c1 (stereo not drawn) [Omeprazole]	acute myocardial infarction, heart failure	
N=C(N)c1ccc(OCCCCCOc2ccc(C(=N)N)cc2)cc1 [Pentamidine]	QT prolongation, arrhythmias	
CCCN1C[C@H](CSC)C[C@@H]2c3cccc4[nH]cc(c34)C[C@H]21 [Pergolide]	valvular heart disease	
CC(C)(N)Cc1ccccc1 [Phentermine]	valvular heart disease	
CS(=O)(=O)c1ccc(C2=C(c3ccccc3)C(=O)OC2)cc1 [Rofecoxib]	myocardial infarction	
CN(CCOc1ccc(CC2SC(=O)NC2=O)cc1)c1ccccn1 (stereo not drawn) [Rosiglitazone]	heart failure	
O=C1NCCN1CCN1CCC(c2cn(-c3ccc(F)cc3)c3ccc(Cl)cc23)CC1 [Sertindole]	QT prolongation, TdP, sudden cardiac death	
CC(C)OC(=O)[C@H](C)N[P@](=O)(OC[C@H]1O[C@@H](n2ccc(=O)[nH]c2=O)[C@](C)(F)[C@@H]1O)Oc1ccccc1 [Sofobuvir]	Bradycardia	
CNC(=O)c1cc(Oc2ccc(NC(=O)Nc3ccc(Cl)c(C(F)(F)F)c3)cc2)ccn1 [Sorafenib]	heart failure, myocardial ischemia, QT prolongation	
C[C@@H]1CN(c2c(F)c(N)c3c(=O)c(C(=O)O)cn(C4CC4)c3c2F)C[C@H](C)N1 [Sparfloxacin]	QT prolongation	
CCN(CC)CCNC(=O)c1c(C)[nH]c(/C=C2\C(=O)Nc3ccc(F)cc32)c1C [Sunitinib]	long QT, left ejection fraction, myocardial infarction	
CCCCCNC(=N)N/N=C/c1c[nH]c2ccc(OC)cc12 [Tegaserod]	Ischemia	
CC(CC(c1ccccc1)c1ccccc1)NC(C)(C)C (stereo not drawn) [Terodiline]	ventricular tachycardia, cardiac death	
NC1=N[C@H](O)[C@H]2[C@H]3O[C@]4(O)O[C@@H]([C@@H](O)[C@@]2(N1)[C@@H]4O)[C@]3(O)CO [Tetrodotoxin]		effect on field potential generation, mechanical contraction (and oxygen oscillation) [3]: complete loss of field potential generation and associated mechanical contraction; also recorded: eliminated field potential generation, mechanical contraction, and oxygen oscillation; effect on oxygen oscillation [3]: decayed simultaneously with the field potential
COc1cc2c(Nc3ccc(Br)cc3F)ncnc2cc1OCC1CCN(C)CC1 [Vandetanib]	long QT	
COc1ccc(C(CN(C)C)C2(O)CCCCC2)cc1 (stereo not drawn) [Venlafaxine]	QT prolongation, arrhythmias	
O=C1Cc2cc(CCN3CCN(c4nsc5ccccc45)CC3)c(Cl)cc2N1 [Ziprasidone]	QT prolongation, TdP, sudden cardiac death	
Arsenic trioxide	QT prolongation, tachycardia	
Ipilimumab	lethal myocarditis	
Nivolumab	lethal myocarditis	
